Counter-ions that a name gives are not always drawn.
The compounds below were run against AaDOP2 (Aedes aegypti, UniProt H6D5H2) (assay: AaDOP2 antagonist screen of the LOPAC1280 library (HEK-CRELuc-Aadop2 cells, luminescence)). Details: not given.
Assay type: cell-based

Chain of AaDOP2 (H6D5H2 1-476): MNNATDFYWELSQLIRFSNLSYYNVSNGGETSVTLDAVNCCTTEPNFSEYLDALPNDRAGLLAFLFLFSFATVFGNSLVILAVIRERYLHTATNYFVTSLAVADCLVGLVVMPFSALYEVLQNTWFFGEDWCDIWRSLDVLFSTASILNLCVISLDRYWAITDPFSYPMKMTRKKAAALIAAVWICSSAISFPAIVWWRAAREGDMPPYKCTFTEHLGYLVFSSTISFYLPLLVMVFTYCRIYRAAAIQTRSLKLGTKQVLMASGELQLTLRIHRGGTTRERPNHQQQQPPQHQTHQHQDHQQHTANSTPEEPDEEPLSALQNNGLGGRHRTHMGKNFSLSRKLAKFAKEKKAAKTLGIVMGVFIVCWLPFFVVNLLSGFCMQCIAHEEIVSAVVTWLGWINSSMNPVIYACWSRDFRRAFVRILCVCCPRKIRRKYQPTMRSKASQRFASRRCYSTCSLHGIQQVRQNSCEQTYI

SMILES | Compound effect (percent receptor signaling in presence of test compound, relative lux units relative to the SCH23390 control) | % of the SCH23390 effect (percent inhibition of receptor response relative to the SCH23390 control) [%]
Clc1cccc(Cl)c1N=C1NCCN1 [Compound 299, Clonidine hydrochloride] | 100 | 
CO/N=C(\C(=O)N[C@@H]1C(=O)N2C(C(=O)O)=C(COC(C)=O)CS[C@H]12)c1csc(N)n1 [Compound 300, Cefotaxime sodium] | 93 | 
CN(C(=O)CCCOc1ccc2[nH]c(=O)ccc2c1)C1CCCCC1 [Compound 301, Cilostamide] | 88 | 
O=C(O)c1cc(O)cc(C(=O)O)n1 [Compound 302, Chelidamic acid] | 82 | 
OC[C@H]1O[C@@H](n2cnc3c(NC4CCCC4)ncnc32)[C@H](O)[C@@H]1O [Compound 303, N6-Cyclopentyladenosine] | 89 | 
CC1(C(=O)O)C2CCC(O2)C1(C)C(=O)O (stereo not drawn) [Compound 304, Cantharidic Acid] | 120 | 
CN(C)CCCN1c2ccccc2Sc2ccc(Cl)cc21 [Compound 305, Chlorpromazine hydrochloride] | 95 | 
O=C(/C=C/c1ccc(O)c(O)c1)OCCc1ccccc1 [Compound 307, Caffeic acid phenethyl ester] | 147 | 
CC(=O)OCC1=C(C(=O)O)N2C(=O)[C@@H](NC(=O)CSc3ccncc3)[C@H]2SC1 [Compound 308, Cephapirin sodium] | 116 | 
CC1=C(C(=O)O)N2C(=O)[C@@H](NC(=O)[C@H](N)C3=CCC=CC3)[C@H]2SC1 [Compound 309, Cephradine] | 79 | 
CCN(CCCl)Cc1ccccc1Br.Cl [Compound 310, DSP-4 hydrochloride] | 111 | 
CCn1nc(C(=O)O)c(=O)c2cc3c(cc21)OCO3 [Compound 311, Cinoxacin] | 135 | 
CCCC(C)(COC(N)=O)COC(=O)NC(C)C (stereo not drawn) [Compound 312, Carisoprodol] | 130 | 
CN(C)CCOC(=O)COc1ccc(Cl)cc1 [Compound 313, Centrophenoxine hydrochloride] | 99 | 
Cl.N[C@@H](CCl)C(=O)O [Compound 315, beta-Chloro-L-alanine hydrochloride] | 99 | 
Oc1ccccc1O [Compound 316, Pyrocatechol] | 101 | 
O=C(N[C@@H](Cc1ccccc1)C(=O)CCl)OCc1ccccc1 [Compound 317, Z-L-Phe chloromethyl ketone] | 124 | 
COc1cc2c(c(OC)c1OC)-c1ccc(OC)c(=O)cc1[C@@H](NC(C)=O)CC2 [Compound 319, Colchicine] | 131 | 
NC(N)=NOCC[C@H](N)C(=O)O.O=S(=O)(O)O [Compound 320, L-Canavanine sulfate] | 92 | 
NS(=O)(=O)c1cc2c(cc1Cl)NC(C1CC3C=CC1C3)NS2(=O)=O (stereo not drawn) [Compound 321, Cyclothiazide] | 93 | 
OC[C@H]1O[C@@H](n2cnc3c(NC4CCCCC4)ncnc32)[C@H](O)[C@@H]1O [Compound 322, N6-Cyclohexyladenosine] | 100 | 

SMILES | Compound effect (percent receptor signaling in presence of test compound, relative lux units relative to the SCH23390 control) | % of the SCH23390 effect (percent inhibition of receptor response relative to the SCH23390 control) [%]
CC[C@@]1(O)C(=O)OCc2c1cc1n(c2=O)Cc2cc3ccccc3nc2-1 [Compound 323, (S)-(+)-Camptothecin] | 7 | 93
CCN(CC)C(C)C(=O)N1c2ccccc2Sc2ccccc21.Cl (stereo not drawn) [Compound 324, 10-(alpha-Diethylaminopropionyl)-phenothiazine hydrochloride] | 56 | 
CCCn1c(=O)c2[nH]c(C3CCCC3)nc2n(CCC)c1=O [Compound 327, 8-Cyclopentyl-1,3-dipropylxanthine] | 111 | 
Cn1c(=O)c2[nH]c(C3CCCC3)nc2n(C)c1=O [Compound 328, 8-Cyclopentyl-1,3-dimethylxanthine] | 93 | 
Cl.NCC(O)C1CCCCCCC1 (stereo not drawn) [Compound 331, 2-Cyclooctyl-2-hydroxyethylamine hydrochloride] | 95 | 
NCCc1c[nH]c2ccc(C(N)=O)cc12.O=C(O)/C=C\C(=O)O [Compound 332, 5-Carboxamidotryptamine maleate] | 119 | 
O=C(O)c1cc(O)c2ccc(Cl)cc2n1 [Compound 333, 7-Chlorokynurenic acid] | 79 | 
CCNC(=O)[C@H]1O[C@@H](n2cnc3c(N)nc(NCCc4ccc(CCC(=O)O)cc4)nc32)[C@H](O)[C@@H]1O.Cl [Compound 337, CGS-21680 hydrochloride] | 112 | 
OC[C@H]1O[C@@H](n2cnc3c(NC4CCCC4)nc(Cl)nc32)[C@H](O)[C@@H]1O [Compound 338, 2-Chloro-N6-cyclopentyladenosine] | 92 | 
Cl.N=C(N)NC(=N)Nc1cccc(Cl)c1 [Compound 339, 1-(m-Chlorophenyl)-biguanide hydrochloride] | 83 | 
Nc1nc(Cl)nc2c1ncn2[C@@H]1O[C@H](COP(=O)([O-])OP(=O)([O-])OP(=O)([O-])[O-])[C@@H](O)[C@H]1O.[Na+].[Na+].[Na+].[Na+] [Compound 340, 2-Chloroadenosine triphosphate tetrasodium] | 102 | 
Oc1cc2c(cc1O)CN(C(=S)NCCc1ccc(Cl)cc1)CCC2 [Compound 342, Capsazepine] | 69 | 
CN1C(=O)CCS(=O)(=O)C1c1ccc(Cl)cc1 (stereo not drawn) [Compound 343, Chlormezanone] | 93 | 
Cn1c(=O)c2c(nc(C=Cc3cccc(Cl)c3)n2C)n(C)c1=O [Compound 344, 8-(3-Chlorostyryl)caffeine] | 91 | 
Nc1nc2ccc(Cl)cc2c2nc(-c3ccco3)nn12 [Compound 345, CGS-15943] | 117 | 
O=C[C@H](Cl)[C@@H](O)[C@H](O)[C@H](O)CO [Compound 346, 2-Chloro-2-deoxy-D-glucose] | 114 | 
CN1C2CCC1CC(OC(c1ccccc1)c1ccc(Cl)cc1)C2.Cl (stereo not drawn) [Compound 347, 4'-Chloro-3-alpha-(diphenylmethoxy)tropane hydrochloride] | 15 | 85
c1ccc(C2CC2)c(OCC2=NCCN2)c1 [Compound 348, Cirazoline hydrochloride] | 74 | 
N[C@H](C(=O)O)[C@H]1C[C@@H]1C(=O)O [Compound 350, (2S,1'S,2'S)-2-(carboxycyclopropyl)glycine] | 97 | 
O=C(c1ccc2c(c1)OCCO2)N1CCCCC1 [Compound 352, CX 546] | 97 | 

Same assay, conditions: 10 µM compound, 300 nM dopamine, 2 hr; hit = compound effect <20

SMILES | Compound effect (percent receptor signaling in presence of test compound, relative lux units relative to the SCH23390 control) [%]
NC(=O)c1cc[n+](CC2=C(C(=O)[O-])N3C(=O)[C@@H](NC(=O)[C@@H](c4ccccc4)S(=O)(=O)[O-])[C@H]3SC2)cc1.[Na+] [Compound 306, Cefsulodin sodium salt hydrate] | 108
CN1CCN(c2nc3cc(C(F)(F)F)ccc3n3cccc23)CC1.O=C(O)/C=C\C(=O)O [Compound 330, CGS-12066A maleate] | 104
C[C@@](Cc1ccc(O)c(O)c1)(NN)C(=O)O [Compound 335, S-(-)-Carbidopa] | 112
CS(=O)(=O)O.Cn1cc(C(F)(F)F)nc1-c1ccc(OCC(O)CNCCOc2ccc(O)c(C(N)=O)c2)cc1 (stereo not drawn) [Compound 349, CGP 20712A methanesulfonate] | 92
N#Cc1cc2nc([O-])c([O-])nc2cc1[N+](=O)[O-].[Na+].[Na+] [Compound 351, CNQX disodium] | 91
